The record followed here is patent US9896441B2 (Lycera Corporation, priority 2014, dated 2018).

The target of test [1] is T1, RORγ-LBD (Homo sapiens, UniProt P51449).
T1 construct: made in house; host or cells: SF9 cells (baculovirus); used as diluted lysate
T1 sequence (P51449 269-508 limits assumed): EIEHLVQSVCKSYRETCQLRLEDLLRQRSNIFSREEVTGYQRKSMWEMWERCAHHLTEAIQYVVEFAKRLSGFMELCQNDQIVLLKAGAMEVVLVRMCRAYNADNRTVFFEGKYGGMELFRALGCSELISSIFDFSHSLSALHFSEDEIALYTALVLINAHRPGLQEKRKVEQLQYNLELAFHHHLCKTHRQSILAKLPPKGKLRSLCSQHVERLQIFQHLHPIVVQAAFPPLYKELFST
The test is described as follows: RORγ-Ligand Binding Domain (LBD) TR-FRET Assay.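 For TR-FRET Assay Max Response: 665/615 nm signal ratio set to 100 without ursolic acid or test compound.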 The test is classed as biochemical. Conditions: for TR-FRET Assay Max Response: maximum response. In short, it runs like this: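 TR-FRET read-out using a biotin-tagged SRC1 coactivator LXXLL peptide (200 nM final), with the antagonist ursolic acid present at 2 μM final. Receptor is His-tagged LBD expressed in SF9 cells, ~3 nM final in pH 7.0 Tris/KCl/EDTA/DTT/BSA buffer; compounds in 1% DMSO final.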
Background: TR-FRET usually uses a lanthanide donor and a delayed reading to cut background.

Test [2] deals with T2, Gal4-RORγ-LBD (Homo sapiens, UniProt P51449).
T2 construct: expressed in transfected cells
T2 sequence (P51449 269-508 limits assumed): T1 sequence (P51449 269-508 limits assumed)
The test is described as follows: Gal4-RORγ Luciferase Reporter Assay in HEK-293T Cells. The test is classed as cell-based. Conditions: HEK-293 cells; for Gal4-RORγ Assay Max Response: maximum response. Here is the method:
Assay procedures and results are described below.
In the following protocol, HEK-293 cells were transfected with a construct comprising the Gal4 DNA binding domain fused to the ligand binding domain of RORγ (Gal4-RORγ-LBD) in a pcDNA3.1neo plasmid, and also with a reporter construct comprising pGL4.31 Gal4-luciferase (Promega). Control cells were prepared similarly using empty pcDNA3.1neo and pGL4.31 vectors.
Trans-IT reagent (Mirus, 60 μL) at room temperature was added drop wise to OptiMEM (Invitrogen, 1.5 ml). This reagent mixture was mixed by inversion then incubated for 5 to 30 minutes at room temperature. It then was added to a solution of both expression vectors (5 μg each), mixed, and incubated at room temperature for about 20 minutes. HEK-293 cells were harvested from incubation flasks by removing the media, treating with TrypLE Express (Invitrogen), and incubating until the cells detached from the bottom of the flask (approximately 2-5 minutes). 10 Million cells were collected by centrifugation and re-suspended in 10 mL of Dulbecco's Modified Eagle Medium, High Glucose (DMEM, Invitrogen) containing 10% Fetal Bovine Serum and 100 IU each of penicillin and streptomycin. The re-suspended cells and the transfection mixture were added to a T75 flask, mixed and incubated overnight at 37° C. and 5% CO2.
The cells were harvested as described above, counted, and centrifuged to obtain the desired number of cells, then re-suspended in complete growth media at 0.75×10^6 cells/mL. The RORγ antagonist, ursolic acid, was added to the cells at a final concentration of […]. Cells were plated at 20 µL of cell suspension/well (10,000-15,000 cells/well) in white tissue culture treated 384 well plates. Test compounds were dissolved at 10 mM in DMSO then diluted into complete growth medium to 5× the final intended test concentration. These drug stock solutions, 5 µL/well were added to the tissue culture plate. The final DMSO concentration was 0.2%. The plates were briefly centrifuged then incubated overnight at 37° C. and 5% CO2. To conduct the assay, the tissue culture plates were allowed to equilibrate to room temperature and One-Glo luciferase reagent (Promega, 25 µL/well) was added. The plates were briefly centrifuged then incubated at room temperature for 10 minutes. The luciferase intensity was read on an Envision plate reader (Perkin Elmer). […] The luciferase signal in the absence of ursolic acid or test compound is defined at 100. The Max Response is the upper plateau in the signal as determined by line-fit using a 4-parameter logistic model in PRISM (GraphPad).
In general terms: In a reporter assay the amount or activity of a reporter protein is the signal.

Where [3] appears, read: with 2 μM ursolic acid (RORγ antagonist), highest test concentration 10 μM.
The mark [4] stands for this setting: ursolic acid present, luciferase readout.
[5] abbreviates: luciferase reporter, with ursolic acid.
Setting [6] is: luciferase reporter, in presence of ursolic acid.

For `CCOC(=O)[C@@H]1Cc2ccc(OCc3c(F)cccc3Cl)cc2N(S(=O)(=O)c2ccc(F)c(OC)c2)[C@@H]1C`, the concentration giving a half-maximal response (EC50) (in general, the midpoint of the concentration-response curve) in test [1] (setting [3]) was less than 500 nM; in test [2] (setting [4]) it was 500 to 5000 nM.

In the case of `CCOc1nn(CC)cc1S(=O)(=O)N1CC(C(=O)O)Cc2ccc(OCc3c(F)cccc3Cl)cc21` (centres unmarked), the EC50 in test [1] (setting [3]) is less than 500 nM; in test [2] (setting [4]) it was greater than 10000 nM.

As to `O=C(O)C1Cc2ccc(OCc3c(F)cccc3Cl)cc2N(S(=O)(=O)c2cccc(C(F)(F)F)c2)C1` (centres unmarked), the concentration giving a half-maximal response (EC50) in test [1] (setting [3]) is less than 500 nM; in test [2] (setting [4]), 500 to 5000 nM.

In the case of `O=C(O)CC[C@H]1CN(S(=O)(=O)c2cccc(C(F)(F)F)c2)c2cc(CCc3c(F)cccc3Cl)ccc2O1`, the concentration for a half-maximal effect (EC50) in test [1] (setting [3]) was less than 500 nM; in test [2] (setting [4]), 500 to 5000 nM.

Consider `C/C(=C\c1ccc2c(c1)N(S(=O)(=O)c1cccc(C(F)(F)F)c1)CC(C(=O)O)C2)c1c(F)cccc1Cl` (centres unmarked), for which the 50% effective concentration (EC50) was less than 500 nM in test [1] (setting [3]) and 500 to 5000 nM in test [2] (setting [4]).

As to `CCOC(=O)C1Cc2ccc(CCc3c(F)cccc3Cl)cc2N(S(=O)(=O)c2cccc(C(F)(F)F)c2)C1` (centres unmarked), the EC50 in test [1] (setting [3]) and in test [2] (setting [4]) was less than 500 nM throughout.

`N#CCC[C@H]1CN(S(=O)(=O)c2cccc(C(F)(F)F)c2)c2cc(CCc3c(F)cccc3Cl)ccc2O1`: the EC50 in test [1] (setting [3]) and in test [2] (setting [4]) was less than 500 nM throughout.

Consider `C/C(=C\c1ccc2c(c1)N(S(=O)(=O)c1cccc(C(F)(F)F)c1)C[C@H](CCC#N)O2)c1c(F)cccc1Cl`, for which the EC50 in test [1] (setting [3]) and in test [2] (setting [4]) was less than 500 nM each time.

Consider `O=C(O)C[C@H]1CN(S(=O)(=O)c2cccc(C(F)(F)F)c2)c2cc(COc3c(F)cccc3Cl)ccc2O1`, for which the half-maximal effective concentration (EC50) in test [1] (setting [3]) is less than 500 nM; in test [2] (setting [4]), 500 to 5000 nM.

Take `O=S(=O)(c1cccc(C(F)(F)F)c1)N1C[C@H](CCO)Oc2ccc(COc3c(F)cccc3Cl)cc21`: the EC50 was less than 500 nM in test [1] (setting [3]) and 500 to 5000 nM in test [2] (setting [4]).

Regarding `C[C@H]1CN(S(=O)(=O)c2cccc(C(F)(F)F)c2)c2cc(COc3c(F)cccc3Cl)ccc2O1`, the EC50 in test [1] (setting [3]) is less than 500 nM; in test [2] (setting [4]), 5000 to 10000 nM.

Consider `C[C@H]1CN(S(=O)(=O)c2ccc(F)cc2)c2cc(COc3c(F)cccc3Cl)ccc2O1`, for which the EC50 in test [1] (setting [3]) is less than 500 nM; in test [2] (setting [4]), 5000 to 10000 nM.

As to `CCOC(=O)[C@@H]1Cc2ccc(OC3CCc4ccccc43)cc2N(S(=O)(=O)c2ccc(F)c(OC)c2)[C@@H]1C` (mixture of isomers) [Example 20, (2R,3R)-Ethyl 7-((2,3-dihydro-1H-inden-1-yl)oxy)-1-((4-fluoro-3-methoxyphenyl)sulfonyl)-2-methyl-1,2,3,4-tetrahydroquinoline-3-carboxylate], the concentration for a half-maximal effect (EC50) in test [1] (RORγ-LBD TR-FRET) and in test [2] (setting [5]) was less than 500 nM each time.

As to `COc1cc(S(=O)(=O)N2c3cc(OC4CCc5ccccc54)ccc3C[C@@H](C(=O)O)[C@H]2C)ccc1F` (mixture of isomers) [Example 22, (2R,3R)-7-((2,3-Dihydro-1H-inden-1-yl)oxy)-1-((4-fluoro-3-methoxy-phenyl)sulfonyl)-2-methyl-1,2,3,4-tetrahydroquinoline-3-carboxylic acid], the EC50 is less than 500 nM in test [1] (RORγ-LBD TR-FRET) and 500 to 5000 nM in test [2] (setting [5]).

For `COc1cc(S(=O)(=O)N2c3cc(/C=C/c4c(F)cccc4Cl)ccc3C[C@@H](O)[C@H]2C)ccc1F` (racemic) [Example 168, (2R,3R)-7-((E)-2-Chloro-6-fluorostyryl)-1-((4-fluoro-3-methoxyphenyl)sulfonyl)-2-methyl-1,2,3,4-tetrahydroquinolin-3-ol], in test [1] (RORγ-LBD TR-FRET assay), the half-maximal effective concentration (EC50) was less than 500 nM and the “TR-FRET Assay Max Response” value is reported as “*** (a value in the range of greater than 150 to 200)”. Besides, in test [2] (setting [6]), the EC50 is less than 500 nM and the “Gal4-RORγ Assay Max Response” value is on record as “* (a value in the range of 30 to 90)”.

`COc1cc(S(=O)(=O)N2c3cc(/C=C(\C)c4c(F)cccc4Cl)ccc3C[C@@H](O)[C@H]2C)ccc1F` (racemic) [Example 169, (2R,3R)-7-((E)-2-(2-Chloro-6-fluorophenyl)prop-1-en-1-yl)-1-((4-fluoro-3-methoxyphenyl)sulfonyl)-2-methyl-1,2,3,4-tetrahydroquinolin-3-ol]: in test [1] (RORγ-LBD TR-FRET assay), the 50% effective concentration (EC50) was less than 500 nM and the “TR-FRET Assay Max Response” value was “*** (a value in the range of greater than 150 to 200)”. In test [2] (setting [6]), the EC50 is less than 500 nM and the “Gal4-RORγ Assay Max Response” value was “* (a value in the range of 30 to 90)”.

With `C[C@@H]1[C@H](O)Cc2ccc(/C=C/c3c(F)cccc3Cl)cc2N1S(=O)(=O)c1cccc(C(F)(F)F)c1` (racemic) [Example 170, (2R,3R)-7-((E)-2-Chloro-6-fluorostyryl)-2-methyl-1-((3-(trifluoromethyl)phenyl)sulfonyl)-1,2,3,4-tetrahydroquinolin-3-ol], in test [1] (RORγ-LBD TR-FRET assay), the EC50 was less than 500 nM and the “TR-FRET Assay Max Response” value is “*** (a value in the range of greater than 150 to 200)”. Also, in test [2] (setting [6]), the EC50 fell in the range of 500 to 5000 nM and the “Gal4-RORγ Assay Max Response” value is “*** (a value in the range of greater than 150 to 200)”.

For `C/C(=C\c1ccc2c(c1)N(S(=O)(=O)c1cccc(C(F)(F)F)c1)[C@H](C)[C@H](O)C2)c1c(F)cccc1Cl` (racemic) [Example 171, (2R,3R)-7-((E)-2-(2-Chloro-6-fluorophenyl)prop-1-en-1-yl)-2-methyl-1-((3-(trifluoromethyl)phenyl)sulfonyl)-1,2,3,4-tetrahydroquinolin-3-ol], in test [1] (RORγ-LBD TR-FRET assay), the EC50 is less than 500 nM and the “TR-FRET Assay Max Response” value is given as “*** (a value in the range of greater than 150 to 200)”. Also, in test [2] (setting [6]), the 50% effective concentration (EC50) was 500 to 5000 nM and the “Gal4-RORγ Assay Max Response” value was “** (a value in the range of greater than 90 to 150)”.

In the case of `COc1cc(S(=O)(=O)N2c3cc(/C=C/c4c(F)cccc4Cl)ccc3C[C@H](O)[C@H]2C)ccc1F` (racemic) [Example 174, rac-(2R,3S)-7-((E)-2-Chloro-6-fluorostyryl)-1-((4-fluoro-3-methoxyphenyl)sulfonyl)-2-methyl-1,2,3,4-tetrahydroquinolin-3-ol], in test [1] (RORγ-LBD TR-FRET assay), the EC50 is less than 500 nM and the “TR-FRET Assay Max Response” value was “** (a value in the range of greater than 90 to 150)”. In test [2] (setting [6]), the concentration giving a half-maximal response (EC50) lay in the range of 500 to 5000 nM and the “Gal4-RORγ Assay Max Response” value is on record as “* (a value in the range of 30 to 90)”.

Regarding `COc1cc(S(=O)(=O)N2c3cc(/C=C(\C)c4c(F)cccc4Cl)ccc3C[C@H](O)[C@H]2C)ccc1F` (racemic) [Example 175, rac-(2R,3S)-7-((E)-2-(2-Chloro-6-fluorophenyl)prop-1-en-1-yl)-1-((4-fluoro-3-methoxyphenyl)sulfonyl)-2-methyl-1,2,3,4-tetrahydroquinolin-3-ol], in test [1] (RORγ-LBD TR-FRET assay), the EC50 was less than 500 nM and the “TR-FRET Assay Max Response” value is listed as “** (a value in the range of greater than 90 to 150)”. In test [2] (setting [6]), the EC50 lay in the range of 500 to 5000 nM and the “Gal4-RORγ Assay Max Response” value is recorded as “* (a value in the range of 30 to 90)”.

Consider `C[C@@H]1[C@@H](O)Cc2ccc(/C=C/c3c(F)cccc3Cl)cc2N1S(=O)(=O)c1cccc(C(F)(F)F)c1` (racemic) [Example 176, rac-(2R,3S)-7-((E)-2-Chloro-6-fluorostyryl)-2-methyl-1-((3-(trifluoromethyl)phenyl)sulfonyl)-1,2,3,4-tetrahydroquinolin-3-ol], for which, in test [1] (RORγ-LBD TR-FRET assay), the concentration giving a half-maximal response (EC50) was less than 500 nM and the “TR-FRET Assay Max Response” value is reported as “*** (a value in the range of greater than 150 to 200)”. Besides, in test [2] (setting [6]), the EC50 lay in the range of 500 to 5000 nM and the “Gal4-RORγ Assay Max Response” value is on record as “** (a value in the range of greater than 90 to 150)”.
